Source: the supplement of paper PMC4862054

How the values were obtained:
Assay in all cases: normalised viability (% of control), CellTiter-Blue; higher = more viable cells (about 100 = DMSO control)
[1] = test system: BT-549; details: 100 nM; incubation time: 72 h
Method in brief: (§1)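 Each entry is normalised viability at a single listed concentration within a series. It comes from breast cancer cell lines incubated 72 h with compound in 384-well plates, then measured with CellTiter-Blue fluorescence at 560/590 nm. Every plate was normalised between vehicle (100) and a positive kill control (0).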

[2] = test system: CAL-148; details: 10 nM; incubation time: 72 h
Method in brief: as §1

[3] = test system: CAL-85-1; details: 10 nM; incubation time: 72 h
Method in brief: as §1

[4] = test system: HCC1937; details: 100 nM; incubation time: 72 h
Method in brief: as §1

[5] = test system: HDQ-P1; details: 10 nM; incubation time: 72 h
Method in brief: as §1

[6] = test system: MDA-MB-231; details: 100 nM; incubation time: 72 h
Method in brief: as §1

[7] = test system: MDA-MB-468; details: 100 nM; incubation time: 72 h
Method in brief: as §1

[8] = test system: SK-BR-3; details: 100 nM; incubation time: 72 h
Method in brief: as §1

[9] = test system: BT-474; details: incubation time: 72 h
Method in brief: as §1

[10] = test system: BT-549; details: incubation time: 72 h
Method in brief: as §1

[11] = test system: CAL-120; details: incubation time: 72 h
Method in brief: as §1

[12] = test system: CAL-148; details: incubation time: 72 h
Method in brief: as §1

[13] = test system: CAL-51; details: incubation time: 72 h
Method in brief: as §1

[14] = test system: DU-4475; details: incubation time: 72 h
Method in brief: as §1

[15] = test system: HCC1599; details: incubation time: 72 h
Method in brief: as §1

[16] = test system: HCC1937; details: incubation time: 72 h
Method in brief: as §1

[17] = test system: HDQ-P1; details: incubation time: 72 h
Method in brief: as §1

[18] = test system: Hs578T; details: incubation time: 72 h
Method in brief: as §1

[19] = test system: MDA-MB-436; details: incubation time: 72 h
Method in brief: as §1

[20] = test system: MFM-223; details: incubation time: 72 h
Method in brief: as §1

[21] = test system: SK-BR-3; details: incubation time: 72 h
Method in brief: as §1

[22] = test system: CAL-148; details: 300 nM; incubation time: 72 h
Description: (§2)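 DSRT, CellTiter-Blue viability, 72 h incubation. Signal is normalised to DMSO and benzethonium chloride controls. Value is the normalised response at dose 6.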

[23] = test system: CAL-51; details: 300 nM; incubation time: 72 h
Description: as §2

[24] = test system: CAL-85-1; details: 300 nM; incubation time: 72 h
Description: as §2

[25] = test system: DU-4475; details: 300 nM; incubation time: 72 h
Description: as §2

[26] = test system: HDQ-P1; details: 300 nM; incubation time: 72 h
Description: as §2

[27] = test system: MDA-MB-453; details: 300 nM; incubation time: 72 h
Description: as §2

C[C@H]1C[C@@H]2[C@H]([C@@H](O)C[C@@]3(C)[C@H]2CC[C@]3(O)C(=O)CO)[C@@]2(C)C=CC(=O)C=C12 [Methylprednisolone]
Details | normalised viability [%]
[1] | 111
[2] | 91.3
[3] | 114
[4] | 97.7
[5] | 116
[6] | 120
[7] | 96.6
[8] | 82.5
[22] | 104
[23] | 105
[24] | 112
[25] | 100
[26] | 74.6
[27] | 83.3

normalised viability [%]
Details | 3 nM | 10 nM | 30 nM | 100 nM | 1000 nM | 10000 nM
[9] | – | 121 | – | – | 105 | 112
[10] | – | 89.4 | – | – | 77.8 | 78.4
[11] | – | 89.7 | – | – | 79.3 | 81.1
[12] | 88 | – | 99.4 | 102 | – | –
[13] | 100 | – | 100 | 98.2 | – | –
[14] | 84.7 | – | 83.5 | 86.4 | – | –
[15] | – | 105 | – | – | 102 | 92.5
[16] | – | 80.2 | – | – | 106 | 80.4
[17] | 108 | – | 103 | 122 | – | –
[18] | – | 102 | – | – | 116 | 111
[19] | – | 108 | – | – | 92.2 | 108
[20] | – | 89.4 | – | – | 86.3 | 74.8
[21] | – | 107 | – | – | 97.6 | 91.4

O=C(O)C(=O)O.[NH-][C@@H]1CCCC[C@H]1[NH-].[Pt+2] [Oxaliplatin]
Details | normalised viability [%]
[1] | 89.1
[2] | 127
[3] | 92
[4] | 89.1
[5] | 119
[6] | 89
[7] | 107
[8] | 94
[22] | 121
[23] | 95.5
[24] | 96.9
[25] | 113
[26] | 78.4
[27] | 98.8

normalised viability [%]
Details | 3 nM | 10 nM | 30 nM | 100 nM | 1000 nM | 10000 nM
[9] | – | 125 | – | – | 118 | 83.5
[10] | – | 93.9 | – | – | 74.2 | 52.6
[11] | – | 87.1 | – | – | 93.2 | 52.2
[12] | 93 | – | 106 | 120 | – | –
[13] | 97.9 | – | 92.2 | 94.9 | – | –
[14] | 112 | – | 106 | 100 | – | –
[15] | – | 87.3 | – | – | 79.6 | 70
[16] | – | 90.7 | – | – | 82.2 | 33.9
[17] | 110 | – | 103 | 107 | – | –
[18] | – | 106 | – | – | 129 | 66.9
[19] | – | 111 | – | – | 88.6 | 56.5
[20] | – | 98.6 | – | – | 94.1 | 50.5
[21] | – | 98.1 | – | – | 122 | 47.5

Nc1nc2[nH]cc(CCc3ccc(C(=O)N[C@@H](CCC(=O)O)C(=O)O)cc3)c2c(=O)[nH]1 [Pemetrexed]
Details | normalised viability [%]
[1] | 87.8
[2] | 101
[3] | 99.8
[4] | 92.8
[5] | 120
[6] | 94.9
[7] | 99
[8] | 84
[22] | 106
[23] | 110
[24] | 107
[25] | 93.6
[26] | 83.7
[27] | 102

normalised viability [%]
Details | 3 nM | 10 nM | 30 nM | 100 nM | 1000 nM | 10000 nM
[9] | – | 123 | – | – | 112 | 122
[10] | – | 90.8 | – | – | 90.7 | 79.6
[11] | – | 84.2 | – | – | 77.4 | 63.3
[12] | 95 | – | 105 | 106 | – | –
[13] | 105 | – | 100 | 107 | – | –
[14] | 106 | – | 117 | 108 | – | –
[15] | – | 106 | – | – | 80.2 | 106
[16] | – | 89 | – | – | 93.4 | 85.5
[17] | 110 | – | 100 | 101 | – | –
[18] | – | 124 | – | – | 106 | 82.5
[19] | – | 107 | – | – | 75.3 | 82.5
[20] | – | 96.2 | – | – | 101 | 98.2
[21] | – | 97.5 | – | – | 59.2 | 62.2
